Each block holds one compound with its values, some of them ahead of it.
Key:
[1] = target: T1, 5-hydroxytryptamine receptor 2A (Homo sapiens, UniProt P28223); conditions: Compound concentration 10.0 uM
[2] = target: Dual specificity tyrosine-phosphorylation-regulated kinase 1A (Homo sapiens, UniProt Q13627); assay: DYRK1A Kinase activity screen
[3] = target: Inhibitor of nuclear factor kappa-B kinase subunit beta (Homo sapiens) (UniProt O14920); assay: IKBKB (IKK beta) Kinase activity screen
[4] = target: Alpha-2A adrenergic receptor (Homo sapiens) (UniProt P08913); conditions: Compound concentration 10.0 uM
[5] = target: T2, Cyclin-dependent kinase 5/CDK5 activator 1 (Homo sapiens) (UniProt Q00535+Q15078); assay: CDK5/p35 Kinase activity screen; format: protein-complex assay
T2 sequence (Q00535 whole entry): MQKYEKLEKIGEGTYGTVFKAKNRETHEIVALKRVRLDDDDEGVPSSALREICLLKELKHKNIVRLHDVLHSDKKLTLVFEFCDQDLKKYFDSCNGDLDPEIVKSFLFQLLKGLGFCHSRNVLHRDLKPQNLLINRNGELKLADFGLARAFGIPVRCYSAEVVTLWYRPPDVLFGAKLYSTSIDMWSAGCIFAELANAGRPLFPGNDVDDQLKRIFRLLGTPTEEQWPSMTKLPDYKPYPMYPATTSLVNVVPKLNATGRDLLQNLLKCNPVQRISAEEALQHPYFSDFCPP
T2 sequence (Q15078 99-307 partner limits assumed): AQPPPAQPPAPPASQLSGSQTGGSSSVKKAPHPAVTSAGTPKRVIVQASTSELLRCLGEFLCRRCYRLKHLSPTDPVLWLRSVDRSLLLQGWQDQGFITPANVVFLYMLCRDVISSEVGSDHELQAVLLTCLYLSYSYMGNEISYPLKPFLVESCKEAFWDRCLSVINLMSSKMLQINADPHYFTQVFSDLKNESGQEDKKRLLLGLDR

[6] = target: Serine/threonine-protein kinase mTOR (Homo sapiens) (UniProt P42345); assay: FRAP1 (mTOR) Kinase activity screen
[7] = target: Tyrosine-protein kinase ABL1 (Homo sapiens) (UniProt P00519); assay: ABL1 Kinase activity screen
[8] = target: Serine/threonine-protein kinase Nek1 (Homo sapiens) (UniProt Q96PY6); assay: NEK1 Kinase activity screen
[9] = target: Mitogen-activated protein kinase 3 (Homo sapiens) (UniProt P27361); assay: MAPK3 (ERK1) Kinase activity screen
[10] = target: T2, Cyclin-dependent kinase 5/CDK5 activator 1 (Homo sapiens); assay: CDK5/p25 Kinase activity screen; format: protein-complex assay
[11] = target: Dual specificity tyrosine-phosphorylation-regulated kinase 4 (Homo sapiens) (UniProt Q9NR20); assay: DYRK4 Kinase activity screen
[12] = target: Death-associated protein kinase 1 (Homo sapiens) (UniProt P53355); assay: DAPK1 Kinase activity screen
Death-associated protein kinase 1 (Homo sapiens), sequence (P53355 whole entry, looked up): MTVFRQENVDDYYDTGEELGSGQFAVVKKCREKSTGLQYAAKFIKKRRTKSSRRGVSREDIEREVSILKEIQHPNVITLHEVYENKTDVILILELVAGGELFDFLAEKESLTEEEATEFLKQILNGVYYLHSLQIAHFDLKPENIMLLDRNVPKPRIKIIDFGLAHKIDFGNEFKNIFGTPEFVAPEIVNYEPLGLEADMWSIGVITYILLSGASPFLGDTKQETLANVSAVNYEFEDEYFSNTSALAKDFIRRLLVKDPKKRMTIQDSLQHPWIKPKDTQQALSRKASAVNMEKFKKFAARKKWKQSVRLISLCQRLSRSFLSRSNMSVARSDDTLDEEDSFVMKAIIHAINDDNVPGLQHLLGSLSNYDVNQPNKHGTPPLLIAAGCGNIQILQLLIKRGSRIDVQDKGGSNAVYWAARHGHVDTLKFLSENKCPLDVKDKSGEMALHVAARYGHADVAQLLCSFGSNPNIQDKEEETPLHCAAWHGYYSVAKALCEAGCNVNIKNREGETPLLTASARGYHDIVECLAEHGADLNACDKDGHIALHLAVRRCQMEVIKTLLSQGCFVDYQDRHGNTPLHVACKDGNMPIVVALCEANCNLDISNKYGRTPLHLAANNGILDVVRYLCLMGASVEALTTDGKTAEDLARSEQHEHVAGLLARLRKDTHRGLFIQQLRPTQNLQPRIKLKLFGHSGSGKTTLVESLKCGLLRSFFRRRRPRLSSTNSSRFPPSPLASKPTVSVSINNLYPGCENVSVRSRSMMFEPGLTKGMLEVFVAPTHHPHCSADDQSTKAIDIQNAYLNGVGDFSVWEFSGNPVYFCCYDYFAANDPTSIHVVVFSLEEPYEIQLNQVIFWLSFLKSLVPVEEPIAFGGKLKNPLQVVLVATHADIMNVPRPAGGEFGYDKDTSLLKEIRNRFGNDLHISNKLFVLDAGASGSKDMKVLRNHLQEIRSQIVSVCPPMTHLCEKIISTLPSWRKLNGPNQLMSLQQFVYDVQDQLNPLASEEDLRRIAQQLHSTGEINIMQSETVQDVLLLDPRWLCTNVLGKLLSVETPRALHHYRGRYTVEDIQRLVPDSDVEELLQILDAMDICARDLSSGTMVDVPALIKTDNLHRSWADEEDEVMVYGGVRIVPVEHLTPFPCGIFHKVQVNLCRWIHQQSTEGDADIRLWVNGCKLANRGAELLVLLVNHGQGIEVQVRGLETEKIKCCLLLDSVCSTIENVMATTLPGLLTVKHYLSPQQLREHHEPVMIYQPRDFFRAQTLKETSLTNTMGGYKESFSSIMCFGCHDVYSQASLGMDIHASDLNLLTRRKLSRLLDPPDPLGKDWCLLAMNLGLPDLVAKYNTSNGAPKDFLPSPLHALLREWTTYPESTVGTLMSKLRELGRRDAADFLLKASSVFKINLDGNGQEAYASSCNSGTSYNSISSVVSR

[13] = target: Interleukin-1 receptor-associated kinase 4 (Homo sapiens) (UniProt Q9NWZ3); assay: IRAK4 Kinase activity screen
[14] = target: Dual specificity mitogen-activated protein kinase kinase 1 (Homo sapiens) (UniProt Q02750); assay: MAP2K1 (MEK1) Kinase activity screen
[15] = target: Protein kinase C theta type (Homo sapiens) (UniProt Q04759); assay: PRKCQ (PKC theta) Kinase activity screen
[16] = target: Protein kinase C alpha type (Homo sapiens) (UniProt P17252); assay: PRKCA (PKC alpha) Kinase activity screen
[17] = target: Casein kinase I isoform delta (Homo sapiens) (UniProt P48730); assay: CSNK1D (CK1 delta) Kinase activity screen
[18] = target: Proto-oncogene tyrosine-protein kinase ROS (Homo sapiens) (UniProt P08922); assay: ROS1 Kinase activity screen
[19] = target: T3, D(1A) dopamine receptor (Homo sapiens, UniProt P21728); conditions: Compound concentration 10.0 uM
T3 sequence (P21728 whole entry): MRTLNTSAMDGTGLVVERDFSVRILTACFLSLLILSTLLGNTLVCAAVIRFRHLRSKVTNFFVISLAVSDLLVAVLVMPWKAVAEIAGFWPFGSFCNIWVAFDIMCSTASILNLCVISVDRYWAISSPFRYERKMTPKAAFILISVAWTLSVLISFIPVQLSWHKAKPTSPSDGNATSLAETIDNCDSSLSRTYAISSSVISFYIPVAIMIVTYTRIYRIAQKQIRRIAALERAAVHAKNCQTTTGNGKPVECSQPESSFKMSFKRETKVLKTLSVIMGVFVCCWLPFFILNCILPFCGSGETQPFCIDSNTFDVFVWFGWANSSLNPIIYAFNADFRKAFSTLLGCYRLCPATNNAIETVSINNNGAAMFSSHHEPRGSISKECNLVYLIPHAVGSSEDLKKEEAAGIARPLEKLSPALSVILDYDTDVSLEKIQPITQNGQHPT

[20] = target: Serine/threonine-protein kinase pim-1 (Homo sapiens) (UniProt P11309); assay: PIM1 Kinase activity screen
[21] = target: Mitogen-activated protein kinase 9 (Homo sapiens) (UniProt P45984); assay: MAPK9 (JNK2) Kinase activity screen
Mitogen-activated protein kinase 9 (Homo sapiens), sequence (P45984 whole entry, looked up): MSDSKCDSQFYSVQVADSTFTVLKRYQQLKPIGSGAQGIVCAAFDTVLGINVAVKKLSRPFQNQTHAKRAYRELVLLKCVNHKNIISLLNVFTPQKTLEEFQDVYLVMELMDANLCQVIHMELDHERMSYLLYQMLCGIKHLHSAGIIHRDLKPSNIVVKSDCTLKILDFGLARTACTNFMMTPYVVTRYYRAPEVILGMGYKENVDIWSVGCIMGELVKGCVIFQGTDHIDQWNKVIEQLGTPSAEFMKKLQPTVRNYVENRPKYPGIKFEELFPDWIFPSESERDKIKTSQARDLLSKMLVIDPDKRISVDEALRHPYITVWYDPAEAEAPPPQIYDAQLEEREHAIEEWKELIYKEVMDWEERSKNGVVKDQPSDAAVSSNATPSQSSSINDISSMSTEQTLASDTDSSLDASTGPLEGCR

[22] = target: Glycogen synthase kinase-3 beta (Homo sapiens) (UniProt P49841); assay: GSK3B (GSK3 beta) Kinase activity screen
[23] = target: T4, Dual specificity protein kinase CLK2 (Homo sapiens, UniProt P49760); assay: CLK2 Kinase activity screen
[24] = target: CDK2/Cyclin A2 (Homo sapiens) (UniProt P24941+P20248); assay: CDK2/cyclin A Kinase activity screen; format: protein-complex assay
[25] = target: AMP-activated protein kinase (AMPK) alpha-1/beta-1/gamma-1 (Homo sapiens) (UniProt P54619+Q9Y478+Q13131); assay: AMPK A1/B1/G1 Kinase activity screen; format: protein-complex assay
[26] = target: Tyrosine-protein kinase JAK2 (Homo sapiens) (UniProt O60674); assay: JAK2 Kinase activity screen
Tyrosine-protein kinase JAK2 (Homo sapiens), sequence (O60674 whole entry): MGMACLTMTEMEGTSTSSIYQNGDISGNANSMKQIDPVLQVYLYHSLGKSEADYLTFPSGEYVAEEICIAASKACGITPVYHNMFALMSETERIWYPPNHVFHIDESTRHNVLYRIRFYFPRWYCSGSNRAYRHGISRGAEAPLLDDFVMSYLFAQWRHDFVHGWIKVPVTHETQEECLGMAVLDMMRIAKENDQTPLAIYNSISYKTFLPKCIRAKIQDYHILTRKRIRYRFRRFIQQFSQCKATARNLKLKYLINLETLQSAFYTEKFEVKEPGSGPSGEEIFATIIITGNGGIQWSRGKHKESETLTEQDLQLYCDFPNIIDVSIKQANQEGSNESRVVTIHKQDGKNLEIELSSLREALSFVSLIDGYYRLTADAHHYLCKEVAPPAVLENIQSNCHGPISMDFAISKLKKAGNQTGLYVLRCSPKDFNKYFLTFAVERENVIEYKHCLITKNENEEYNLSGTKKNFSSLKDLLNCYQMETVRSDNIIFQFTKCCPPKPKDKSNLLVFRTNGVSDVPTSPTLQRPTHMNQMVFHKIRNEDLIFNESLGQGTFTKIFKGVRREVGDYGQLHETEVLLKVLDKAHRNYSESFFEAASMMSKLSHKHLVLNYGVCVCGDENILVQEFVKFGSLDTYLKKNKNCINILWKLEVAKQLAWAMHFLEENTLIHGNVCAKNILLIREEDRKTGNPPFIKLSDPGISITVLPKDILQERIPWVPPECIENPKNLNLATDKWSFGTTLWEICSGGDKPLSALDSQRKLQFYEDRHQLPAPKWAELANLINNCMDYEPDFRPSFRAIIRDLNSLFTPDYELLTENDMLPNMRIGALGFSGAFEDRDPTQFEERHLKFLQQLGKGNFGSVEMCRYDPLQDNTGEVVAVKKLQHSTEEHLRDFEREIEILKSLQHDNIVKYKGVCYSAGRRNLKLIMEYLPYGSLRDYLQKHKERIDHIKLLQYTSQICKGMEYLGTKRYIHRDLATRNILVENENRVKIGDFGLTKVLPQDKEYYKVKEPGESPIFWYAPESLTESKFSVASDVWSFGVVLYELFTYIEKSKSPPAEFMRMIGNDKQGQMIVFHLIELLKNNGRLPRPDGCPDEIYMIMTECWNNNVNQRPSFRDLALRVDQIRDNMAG

[27] = target: RAC-alpha serine/threonine-protein kinase (Homo sapiens) (UniProt P31749); assay: AKT1 (PKB alpha) Kinase activity screen; conditions: Compound concentration 0.1 uM
[28] = target: Proto-oncogene tyrosine-protein kinase Src (Homo sapiens) (UniProt P12931); assay: SRC Kinase activity screen
[29] = target: Homeodomain-interacting protein kinase 2 (Homo sapiens) (UniProt Q9H2X6); assay: HIPK2 Kinase activity screen
[30] = target: T3, D(1A) dopamine receptor; assay: GPCRScan assay: inhibition of D1; design: radioligand conc. used [nm] 0.6 – 1.3, parental cells HEKT
[31] = target: Alpha-2A adrenergic receptor (Homo sapiens, UniProt P08913); assay: GPCRScan assay: inhibition of Alpha2A; design: radioligand conc. used [nm] 1.0 – 3.0, parental cells stable MDCK
[32] = target: 5-hydroxytryptamine receptor 1E (Homo sapiens, UniProt P28566); assay: GPCRScan assay: inhibition of 5-HT1E; design: radioligand conc. used [nm] 2.1 – 5.0, parental cells stable HEK
[33] = target: Muscarinic acetylcholine receptor M1 (Homo sapiens, UniProt P11229); assay: GPCRScan assay: inhibition of M1; design: radioligand conc. used [nm] 0.3 – 1.2, parental cells stable CHO
[34] = target: T4, Dual specificity protein kinase CLK2; assay: NanoBRET (SGC Frankfurt) (CLK2)
[35] = target: T1, 5-hydroxytryptamine receptor 2A; assay: GPCRScan assay: inhibition of 5-HT2A; design: radioligand conc. used [nm] 1.2 – 2.4, parental cells HEKT
[36] = target: 5-hydroxytryptamine receptor 1A (Homo sapiens) (UniProt P08908); conditions: Compound concentration 10.0 uM
[37] = target: Beta-3 adrenergic receptor (Homo sapiens, UniProt P13945); conditions: Compound concentration 10.0 uM
[38] = target: Alpha-1A adrenergic receptor (Homo sapiens, UniProt P35348); assay: GPCRScan assay: inhibition of Alpha1A; design: radioligand conc. used [nm] 0.2 - 1.0, parental cells stable HEK
[39] = target: 5-hydroxytryptamine receptor 6 (Homo sapiens) (UniProt P50406); conditions: Compound concentration 10.0 uM
[40] = target: Muscarinic acetylcholine receptor M1 (Homo sapiens) (UniProt P11229); conditions: Compound concentration 10.0 uM
[41] = target: Alpha-1B adrenergic receptor (Homo sapiens, UniProt P35368); assay: GPCRScan assay: inhibition of Alpha1B; design: radioligand conc. used [nm] 0.3 – 1.0, parental cells stable HEK
Alpha-1B adrenergic receptor, sequence (P35368 whole entry): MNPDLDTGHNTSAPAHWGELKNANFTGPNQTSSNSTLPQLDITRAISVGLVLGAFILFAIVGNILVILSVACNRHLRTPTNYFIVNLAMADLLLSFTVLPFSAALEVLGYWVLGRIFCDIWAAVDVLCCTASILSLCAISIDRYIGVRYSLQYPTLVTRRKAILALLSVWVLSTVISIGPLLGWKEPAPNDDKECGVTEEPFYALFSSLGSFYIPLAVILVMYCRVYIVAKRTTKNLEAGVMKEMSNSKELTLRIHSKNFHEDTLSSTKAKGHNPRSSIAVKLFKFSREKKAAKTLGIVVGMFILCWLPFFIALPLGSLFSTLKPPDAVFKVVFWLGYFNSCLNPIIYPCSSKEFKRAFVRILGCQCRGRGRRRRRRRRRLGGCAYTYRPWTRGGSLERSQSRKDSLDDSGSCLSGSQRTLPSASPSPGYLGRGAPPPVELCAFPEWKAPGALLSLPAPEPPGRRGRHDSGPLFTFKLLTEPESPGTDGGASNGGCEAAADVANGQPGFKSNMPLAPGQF

[42] = Compound concentration 0.123 uM

T1 sequence (P28223 whole entry): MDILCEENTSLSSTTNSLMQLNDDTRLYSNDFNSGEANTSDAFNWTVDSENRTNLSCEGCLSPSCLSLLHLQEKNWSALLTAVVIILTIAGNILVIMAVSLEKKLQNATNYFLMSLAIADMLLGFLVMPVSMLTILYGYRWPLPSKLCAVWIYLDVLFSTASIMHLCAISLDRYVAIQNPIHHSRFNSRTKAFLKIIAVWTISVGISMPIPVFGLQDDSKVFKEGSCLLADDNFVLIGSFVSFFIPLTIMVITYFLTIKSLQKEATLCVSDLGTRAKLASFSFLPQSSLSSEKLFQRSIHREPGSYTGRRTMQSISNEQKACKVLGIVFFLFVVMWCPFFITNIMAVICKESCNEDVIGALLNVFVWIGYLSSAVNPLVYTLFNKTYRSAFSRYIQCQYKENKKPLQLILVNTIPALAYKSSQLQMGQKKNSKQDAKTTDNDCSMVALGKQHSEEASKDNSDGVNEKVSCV

inhibition [1]: -2.63%
inhibition [2, 42]: 74.2%
inhibition ([2]; Compound concentration 1.11 uM): 97.5%
inhibition ([3]; Compound concentration 0.1 uM): -6.12%
inhibition ([3]; Compound concentration 1.0 uM): -4.71%
inhibition [4]: 2.61%
inhibition ([5]; Compound concentration 0.1 uM): 1.85%
inhibition ([5]; Compound concentration 1.0 uM): -1.12%
inhibition ([6]; Compound concentration 0.1 uM): -5.58%
inhibition ([6]; Compound concentration 1.0 uM): -8.53%
inhibition ([7]; Compound concentration 0.1 uM): 10.1%
inhibition ([7]; Compound concentration 1.0 uM): 55.7%
inhibition ([8]; Compound concentration 0.1 uM): 3.86%
inhibition ([8]; Compound concentration 1.0 uM): 25.1%
inhibition ([9]; Compound concentration 0.1 uM): 5.63%
inhibition ([9]; Compound concentration 1.0 uM): 6.05%
inhibition ([10]; Compound concentration 0.1 uM): 1.84%
inhibition ([10]; Compound concentration 1.0 uM): 0.79%
inhibition [11, 42]: -8.38%
inhibition ([11]; Compound concentration 1.11 uM): -2.87%
inhibition ([13]; Compound concentration 0.1 uM): 25.3%
inhibition ([13]; Compound concentration 1.0 uM): 42.4%
inhibition ([14]; Compound concentration 0.1 uM): 12.4%
inhibition ([14]; Compound concentration 1.0 uM): 10.9%
inhibition ([15]; Compound concentration 0.1 uM): 5.46%
inhibition ([15]; Compound concentration 1.0 uM): 4.24%
inhibition ([16]; Compound concentration 0.1 uM): 4.38%
inhibition ([16]; Compound concentration 1.0 uM): 3.75%
inhibition ([17]; Compound concentration 0.1 uM): -2.92%
inhibition ([17]; Compound concentration 1.0 uM): 4.31%
inhibition ([18]; Compound concentration 0.1 uM): -3.68%
inhibition ([18]; Compound concentration 1.0 uM): -0.398%
inhibition [19]: 4.41%
inhibition ([20]; Compound concentration 0.1 uM): 15.6%
inhibition ([20]; Compound concentration 1.0 uM): 11.3%
inhibition ([21]; Compound concentration 0.1 uM): 3.18%
inhibition ([21]; Compound concentration 1.0 uM): -1.48%
inhibition ([22]; Compound concentration 0.1 uM): -3.21%
inhibition ([22]; Compound concentration 1.0 uM): -3.11%
inhibition [23, 42]: 92.1%
inhibition ([23]; Compound concentration 1.11 uM): 100%
inhibition ([24]; Compound concentration 0.1 uM): 0.334%
inhibition ([24]; Compound concentration 1.0 uM): 3.32%
inhibition ([25]; Compound concentration 0.1 uM): -2%
inhibition ([25]; Compound concentration 1.0 uM): 0.493%
inhibition ([26]; Compound concentration 0.1 uM): -7.35%
inhibition ([26]; Compound concentration 1.0 uM): -6.29%
inhibition [27]: -8.24%
inhibition ([28]; Compound concentration 0.1 uM): 13.2%
inhibition ([28]; Compound concentration 1.0 uM): 46.7%
inhibition ([29]; Compound concentration 0.1 uM): -3.6%
inhibition ([29]; Compound concentration 1.0 uM): -1.82%
Structure (SMILES): CN1CCN(C(=O)C(C)(C)c2ccc(C(=O)Nc3cn4cc(-c5ccncc5)ccc4n3)cc2)CC1 [T3-CLK]
inhibition ([12]; Compound concentration 0.1 uM): -4.42%
inhibition ([12]; Compound concentration 1.0 uM): -6.43%

inhibition [1]: 92.3%
Ki ([30]; read-out: Ki): 1500 nM
Ki ([30]; read-out: pKi (converted)): 1290 nM
inhibition [4]: 83.7%
Ki [31]: 2660 nM
Ki ([32]; read-out: Ki): 3560 nM
Ki ([32]; read-out: pKi (converted)): 3470 nM
Ki ([33]; read-out: Ki): 2090 nM
Ki ([33]; read-out: pKi (converted)): 1950 nM
IC50 [34]: > 10000 nM (not active)
Ki ([35]; read-out: Ki): 1530 nM
Ki ([35]; read-out: pKi (converted)): 1320 nM
inhibition [36]: 51.3%
inhibition [19]: 58.2%
inhibition [37]: 78.1%
Ki ([38]; read-out: Ki): 1390 nM
Ki ([38]; read-out: pKi (converted)): 1350 nM
inhibition [39]: 30.8%
inhibition [40]: 68.3%
Ki ([41]; read-out: Ki): 5530 nM
Ki ([41]; read-out: pKi (converted)): 5370 nM
Structure (SMILES): CN1CCN(C(=O)C(C)(C)c2ccc(C(=O)Nc3cn4cc(-c5cc(C(C)(C)C)cc(C(C)(C)C)c5)ccc4n3)cc2)CC1 [T3-CLK-N]

From ChEMBL document CHEMBL4507307 (2021)
